{
  "source": "patent US9546144B2",
  "about": "“Bifunctional compounds” (University of Pittsburgh—of the Commonwealth System of …, priority 2011, dated 2017)",
  "key": {"C57BL/6NTac mice [1]": {"tested_on": "C57BL/6NTac mice", "assay": "radiation pulmonary fibrosis and survival after 20 Gy thoracic irradiation", "type": "in vivo, mouse", "settings": "in drinking water", "description": "FIG. 23. MMS350 in drinking water decreases fibrosis in the lungs of thoracic irradiated (20 Gy) mice.\nFor lung irradiation, mice were irradiated to the thoracic cavity with shielding of the head and neck region and abdomen and lower body according to published methods. Animals received 20 Gy single fraction thoracic irradiation and were then maintained according to IACUC directed laboratory conditions. Mice were sacrificed at serial time points after thoracic irradiation including pre-irradiation, days 2, 7, 14, 28, 50, 75, 100, 110, 150 and 200 post-irradiation. Lungs were removed and sagittal sections assayed for percent of lung replaced by fibroblasts and organizing alveolitis according to published methods.\nLungs from irradiated and luc+ cell line injected mice were removed and serial sectioned. Sections were stained for luc+, GFP+ cells, BrdU incorporation, and for quantitation of percent lung replaced by fibrosis (organizing alveolitis) according to published methods.\nMice were injected intra-peritoneally with MMS350 or JP4-039 (GS-nitroxide) in 50% cremphor/50% ethanol according to published methods. For long-term administration of MMS350, the drug was administered in water bottles with bottles changed every 7 days. The dose of drug per bottle was 100 μM MMS350 starting on day 88. […]"}, "C57BL/6NTac mice [2]": {"tested_on": "C57BL/6NTac mice", "assay": "total body irradiation survival (hematopoietic syndrome)", "type": "in vivo, mouse", "settings": "9.5 Gy", "description": "FIG. 11. MMS350 was dissolved in PBS and injected IP at 20 mg/kg. The mice were irradiated to 9.5 Gy total body irradiation and then injected at 4 or 24 hr after irradiation.\nFIG. 13. In vivo mitigation of total body irradiation by MMS350. MMS350 was dissolved in water at a concentration of 2 mg/ml. C57BL/6NTac mice (n=15/group) were irradiated to 9.5 Gy total body irradiation and injected intraperitoneally with 10 mg/kg of MMS350 at 4 or 24 hr. after irradiation. The mice were followed for the development of the hematopoietic syndrome at which time the mice were sacrificed.\nMMS350 was delivered by intraperitoneal injection to C57BL/6 mice (n=15/group) before or after the 9.5 Gy of total body irradiation (a dose which kills at least 50% of mice at 30 days) and indicative of death from the hematopoietic syndrome (bone marrow failure).\nMice were irradiated using JL Shepherd Mark 1 Model 68 irradiator to 9.25 total body irradiation dose or a Varian Linear Accelerator (Varian Medical Systems, Inc, Palo Alto, Calif.) to 20 Gy for pulmonary irradiation according to published methods (2, 10, 13).\nMice were injected intra-peritoneally with MMS350 or JP4-039 (GS-nitroxide) in 50% cremphor/50% ethanol according to published methods. For long-term administration of MMS350, the drug was administered in water bottles with bottles changed every 7 days. The dose of drug per bottle was 100 μM MMS350 starting on day 88. The estimated total amount consumed by each animal daily was 10.9 μg based on a mouse drinking 5 ml of water per day. Chimeric mice irradiated to the thoracic cavity were placed 30 days later on MMS350 in water containing 100 mM MMS350. On day 88 after thoracic irradiation of non-chimeric mice, mice were placed on […] MMS350 in drinking water."}, "[3]": {"tested_on": "luc+ bone marrow chimeric C57BL/6 mice", "assay": "migration of luc+ marrow cells to irradiated lungs of luc+ marrow chimeric mice", "type": "in vivo, mouse", "settings": "in drinking water, after second thoracic irradiation dose", "description": "FIG. 14. Pulmonary migration of luc+ marrow cells to irradiated lungs of luc+ chimeric mice. Groups of 30 C57BL/6Tac mice were given 10 Gy TBI then 24 hr. later 1×10^7 luc+ bone marrow cells I.V. At day 63, subgroups received 18 Gy thoracic irradiation. […] Mice were serially imaged for luciferase, as described in the methods.\nMMS350 was tested in two mouse models of fibrosis in the C57BL/6J model. In the first system (chimeric mice) C57BL/6 mice were irradiated to a total body dose of 10 Gy, which is known to be lethal for 100% of animals in the absence of bone marrow transplantation. These mice were then transplanted intravenously with luciferase positive C57BL/6J mouse bone marrow. These mice are valuable for measuring the site of hematopoiesis from donor origin marrow since the animals can be imaged for mobilization in a specific imaging system, which detects the luciferase signal. In this assay system, animals are injected with luciferin (the substrate for the enzyme luciferase) bone marrow cells, which contain luciferase (those from the donor marrow strain) metabolize luciferin and produce a […] which is detected in a camera system over the immobilized mice. These same animals can be imaged serially over several weeks-months and followed for migration of luciferase positive cells from bone marrow sites into irradiated sites. […]"}, "32D cl 3 cells": {"tested_on": "32D cl 3 cells", "assay": "irradiated 32D cl 3 cells, cell number and viability", "type": "cell-based", "settings": "10 μM, 0-7 Gy, Day 3 or 5 after irradiation", "description": "FIG. 10. The data are from a screening experiment where 32D cl 3 cells were irradiated to doses of 0, 1, 3, 5, or 7 Gy and placed in T25 flasks. Either JP4-039 or MM350 were added at 10 μM and incubated in a CO2 incubator at 37° C. At Day 3 or 5 after irradiation, the cells were counted and the viability determined."}},
  "data": [
    {"smiles": "CC1(C[S+]([O-])CC2(C)COC2)COC1", "note": "[compound 3, 3,3′-Sulfinylbis(methylene)bis(3-methyloxetane)]", "values": [
      {"measurement": "survival of thoracic irradiated mice", "setting": "C57BL/6NTac mice [1]", "value": "significantly increased survival"},
      {"measurement": "survival after total body irradiation", "setting": "C57BL/6NTac mice [2]; 10 mg/kg intraperitoneally 4 hr after irradiation, p=0.0092", "value": "significantly increased survival"},
      {"measurement": "survival after total body irradiation", "setting": "C57BL/6NTac mice [2]; 10 mg/kg intraperitoneally 24 hr after irradiation, p=0.0097", "value": "significantly increased survival"},
      {"measurement": "protection against total body irradiation", "setting": "C57BL/6NTac mice [2]; intraperitoneal injection before irradiation", "value": "protector when delivered prior to irradiation"},
      {"measurement": "migration of bone marrow cells into the lungs", "setting": "[3]", "value": "significantly reduces migration of bone marrow cells into the lungs"},
      {"measurement": "number of cells and viability after irradiation", "setting": "32D cl 3 cells", "value": "comparable to JP4-039"}
    ]}
  ]
}
